Results from US5786333A, “Platelet aggregation inhibitors” (COR Therapeutics, Inc., priority 1995, dated 1998).
Like-named read-outs stand apart in the source and are kept apart here. Where a SMILES comes first, the peptide text is derived from it. Bridges are numbered along the chain shown (N, C = ends).

Tests used:
open chest dog = test: Folts model of thrombosis in dog coronary artery (cyclic flow reductions); assay type: in vivo
Procedure: A. Initiation of cyclic flow reductions (CFRs) in open chest dog. An occluder placed on the left anterior descending (LAD) coronary artery of a 20 kg dog, as previously described was performed.

GP IIb-IIIa = molecular target: T1, GP IIb-IIIa (Homo sapiens, UniProt P05106+P08514); test: Fibrinogen/GP IIb-IIIa plate binding assay; conditions: for differential inhibition of fibrinogen/GP IIb-IIIa binding as compared to vitronectin/vitronectin receptor binding: plate assays, FIG. 30; for inhibition of binding of fibrinogen to GP IIb-IIIa (in words): plate assay
T1 construct: Purified platelet GP IIb-IIIa receptor was prepared as described by Fitzgerald, L. A., et al; from tissue; host or cells: platelets
Procedure: In the assay, GP IIb-IIIa, prepared in purified form, for example as described by Fitzgerald, L. A., et al., Anal Biochem (1985) 151:169-177, incorporated herein by reference, is coated onto a solid support such as beads, test tubes, or microtiter plates. The coated support is then contacted with fibrinogen and with the test material and incubated for a sufficient time to permit maximal binding of fibrinogen to the immobilized GP IIb-IIIa. Fibrinogen is typically provided at a concentration of about 5-50 nM and the test material can, if desired, be added at a series of dilutions. Typical incubations are 2-4 hr at 35° C., the time and temperature being interdependent.
After incubation, the solution containing the fibrinogen and test material is removed and the level of binding of fibrinogen measured by quantitating bound fibrinogen to GP IIb-IIIa. Any suitable means of detection may be used, but it is convenient to employ labeled fibrinogen, for example using radioactive, fluorescent or biotinylated labels. Such methods are well known and need not be elaborated here.
In this case, percent inhibition may be calculated using the amount of Fg bound in the control as representing the basis, so that [formula] Other measures of inhibition effectiveness, such as IC50, may also be used.
Purified platelet GP IIb-IIIa receptor was prepared as described by Fitzgerald, L. A., et al., Anal Biochem (1985) 151:169-177. Vitronectin receptor was prepared as described by Smith, J. W., J Biol Chem (1988) 263:18726-18731. After purification, the receptors were stored in 0.1% Triton X-100 at 0.1-1.0 mg/ml.
The receptors were coated to the wells of 96-well flat-bottom ELISA plates (Linbro EIA-Plus microtiter plate, Flow Laboratories) after diluting 1:200 with a solution of […], 150 mM NaCl, 1 mM CaCl2, pH 7.4, to reduce the Triton X-100 concentration to below its critical micellar concentration and adding an aliquot of 100 ul to each well. The wells were all allowed to incubate overnight at 4° C., and then aspirated to dryness. Additional sites were blocked by the addition of bovine serum albumin (BSA) at 35 mg/ml in the above buffer for 2 hr at 30° C. to prevent nonspecific binding. The wells were then washed once with binding buffer ([…] Tris-HCl, 100 mM NaCl, 2 mM CaCl2, 1 mg/ml BSA).
The corresponding ligands (fibrinogen, von Willebrand Factor, or vitronectin) were labeled with ^125 I or conjugated to biotin using commercially available re-agents and standard protocols. The labeled ligands were added to the receptor-coated wells at final concentration of 10 nM (100 ul/well) and incubated for 3 h at 30° C. in the presence or absence of the test samples. After incubation, the wells are aspirated to dryness and bound ligand is quantitated.
(§1) For ^125 I-labeled ligands, the protein is solubilized with 250 ul SDS. For biotinylated ligands, the bound protein is detected by the addition of antibiotin antibody conjugated to alkaline phosphatase followed by addition of substrate (p-nitrophenyl phosphate), and determination of the optical density of each well at 405 nm.
Sixty-eight crude, lyophilized snake venoms obtained from either Sigma Chemical Company (St. Louis, Mo.) or Miami Serpentarium Labs (Salt Lake City, Utah) were dissolved at 1 mg/ml in buffer (50 mM Tris, 100 mM NaCl, 0.02% azide, 2 mM CaCi2). One ml aliquots of the solutions were subjected to ultrafiltration through Centrocon-10 (YM membrane) microconcentrators (Amicon, Danvers, Mass.). The filtrates were used as test samples in the receptor/ligand assay of paragraph A using the GP IIb-IIIa/fibrinogen system, and detecting binding using biotinylated fibrinogen.

human platelets = human platelets (Homo sapiens, UniProt P05106+P08514); test: ADP-induced human platelet aggregation in platelet rich plasma; assay type: cell-based
Procedure: In these assays, washed platelets are combined with fibrinogen, Ca^+2 and the material to be tested.
Platelet rich plasma (PRP) was obtained from a healthy human volunteer. Aggregation was induced by the addition of 4 uM ADP to 0.5 ml PRP in an aggregometer (Chrono-log Corp.).
Fractions were concentrated to one-half their original volume using a Speed-Vac concentrator (Savant) followed by lyophilization. Samples were then reconstituted in 1 ml distilled water and aliquots (10-50 ul) assayed for their ability to inhibit human platelet aggregation in platelet-rich plasma induced by 20 uM ADP using a whole blood aggregometer (Chrono-Log Corp., Havertown, Pa.).

M21 melanoma cells = test: M21 melanoma cell attachment to vitronectin; assay type: cell-based; conditions: for inhibition of M21 melanoma cell attachment to vitronectin (in words): 35S-methionine labelled cells, vitronectin-coated plates
Procedure: M21 melanoma cells, which express high levels of the vitronectin receptor, were metabolically labelled with ^35 S-methionine, and then added to 24--well tissue culture plates coated with vitronectin. An incubation period of 1 hr at 37° C. was allowed for cell attachment, and this was followed by a wash to remove non-adherent cells. After washing, the adherent cells were solubilized, and the supernatants placed in a liquid scintillation counter. The fraction of cells remaining adherent was calculated by dividing the cpm in the solubilized supernatants by the cpm in the total number of cells added to each well. The effects of purifed snake venom peptides and synthetic cyclic peptides on cell adhesion was determined by including them with the M21 cells during the incubation period.
M21 melanoma cells were labelled with ^35 S-methionine, and then added to vitronectin-coated plates in the presence of the indicated concentrations of purified snake venom peptides. Cell attachment was measured by solubilizing the cells remaining after an incubation and wash, as described in Section C, on page 40.

vitronectin receptor = molecular target: T2, vitronectin receptor (Homo sapiens, UniProt P05106+P06756); test: Vitronectin/vitronectin receptor plate binding assay
T2 construct: Vitronectin receptor was prepared as described by Smith, J. W., J Biol Chem (1988) 263:18726-18731; from tissue; the cited method uses human placenta (own knowledge)
T2 sequence (P06756 31-889 limits assumed): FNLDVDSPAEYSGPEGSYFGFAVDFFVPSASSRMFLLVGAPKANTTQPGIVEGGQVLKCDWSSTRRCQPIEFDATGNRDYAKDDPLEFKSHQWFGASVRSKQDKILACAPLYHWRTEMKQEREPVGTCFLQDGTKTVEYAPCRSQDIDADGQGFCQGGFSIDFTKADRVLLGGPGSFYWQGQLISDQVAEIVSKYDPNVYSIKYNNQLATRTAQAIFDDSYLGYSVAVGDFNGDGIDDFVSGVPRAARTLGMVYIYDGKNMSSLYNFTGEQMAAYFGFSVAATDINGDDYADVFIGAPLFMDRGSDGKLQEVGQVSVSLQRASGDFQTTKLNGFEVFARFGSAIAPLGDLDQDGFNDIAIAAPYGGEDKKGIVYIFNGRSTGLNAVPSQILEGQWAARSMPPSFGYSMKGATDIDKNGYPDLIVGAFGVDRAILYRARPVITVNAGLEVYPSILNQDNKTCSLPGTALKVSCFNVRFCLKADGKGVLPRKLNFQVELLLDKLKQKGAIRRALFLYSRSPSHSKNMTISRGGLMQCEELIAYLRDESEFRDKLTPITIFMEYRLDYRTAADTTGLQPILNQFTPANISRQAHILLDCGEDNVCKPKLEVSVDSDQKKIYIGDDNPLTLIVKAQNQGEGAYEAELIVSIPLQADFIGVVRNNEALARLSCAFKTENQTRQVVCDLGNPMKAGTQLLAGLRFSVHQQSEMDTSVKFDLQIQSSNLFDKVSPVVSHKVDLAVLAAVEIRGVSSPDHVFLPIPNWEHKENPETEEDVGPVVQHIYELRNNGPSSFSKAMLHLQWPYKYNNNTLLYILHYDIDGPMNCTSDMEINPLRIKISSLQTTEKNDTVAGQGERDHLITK
T2 sequence (P06756 891-1048 partner limits assumed): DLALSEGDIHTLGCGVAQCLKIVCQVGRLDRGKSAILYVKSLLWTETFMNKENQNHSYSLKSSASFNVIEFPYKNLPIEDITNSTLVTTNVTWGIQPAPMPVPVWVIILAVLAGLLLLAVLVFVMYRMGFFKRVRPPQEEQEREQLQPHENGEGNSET
T2 sequence (P05106 27-788): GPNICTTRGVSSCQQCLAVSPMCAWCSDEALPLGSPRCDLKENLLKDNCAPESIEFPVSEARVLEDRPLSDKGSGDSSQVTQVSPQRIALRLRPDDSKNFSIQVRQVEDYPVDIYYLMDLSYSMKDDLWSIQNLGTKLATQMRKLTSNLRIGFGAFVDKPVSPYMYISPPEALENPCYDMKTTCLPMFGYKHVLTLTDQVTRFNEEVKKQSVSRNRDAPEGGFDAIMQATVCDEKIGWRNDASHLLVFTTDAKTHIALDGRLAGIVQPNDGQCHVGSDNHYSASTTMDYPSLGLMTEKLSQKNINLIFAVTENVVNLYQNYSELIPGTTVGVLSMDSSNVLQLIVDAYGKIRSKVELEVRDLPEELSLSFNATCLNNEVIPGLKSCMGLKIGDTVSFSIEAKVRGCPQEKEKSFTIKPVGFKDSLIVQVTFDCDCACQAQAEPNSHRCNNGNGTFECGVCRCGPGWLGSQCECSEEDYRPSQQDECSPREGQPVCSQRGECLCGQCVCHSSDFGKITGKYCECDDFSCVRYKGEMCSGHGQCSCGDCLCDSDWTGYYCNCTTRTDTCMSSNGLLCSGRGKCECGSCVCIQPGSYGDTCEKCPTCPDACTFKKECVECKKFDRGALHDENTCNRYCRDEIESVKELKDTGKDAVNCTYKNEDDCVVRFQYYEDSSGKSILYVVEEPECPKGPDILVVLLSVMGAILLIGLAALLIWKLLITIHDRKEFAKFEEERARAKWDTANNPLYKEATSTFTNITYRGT
From the text: The assay systems of the invention further include characterization of the PAI specificity by binding inhibition assays identical to that above but substituting other adhesive proteins for Fg and other receptors for GP IIb-IIIa. In particular, inhibition of the binding of vitronectin to the vitronectin receptor; fibronectin to the fibronectin receptor; fibronectin to GP IIb-IIIa and fibrinogen and/or vWF to GP IIb-IIIa may be assessed. The adhesive protein and receptors for these assays are available in the art.
Purified platelet GP IIb-IIIa receptor was prepared as described by Fitzgerald, L. A., et al., Anal Biochem (1985) 151:169-177. Vitronectin receptor was prepared as described by Smith, J. W., J Biol Chem (1988) 263:18726-18731. […]
The corresponding ligands (fibrinogen, von Willebrand Factor, or vitronectin) were labeled with ^125 I or conjugated to biotin using commercially available re-agents and standard protocols. […] After incubation, the wells are aspirated to dryness and bound ligand is quantitated.
as §1, with “nm. […]” for “nm.”

platelet receptors = platelet receptors (Homo sapiens, UniProt P05106+P08514); conditions: read-out: IC50 (affinity of interaction with platelet receptors); background art; cited from earlier work
[1] = ADP-induced human platelet aggregation, table of Example 17, read-out: Appr. IC50

Compound: C[C@H](NC(=O)[C@@H]1CSSC[C@H](NC(=O)CN)C(=O)NCC(=O)N[C@@H](CCCCN)C(=O)NCC(=O)N[C@@H](CC(=O)O)C(=O)N[C@@H](Cc2c[nH]c3ccccc23)C(=O)N2CCC[C@H]2C(=O)N1)C(N)=O [#3]
- effect on cyclic flow reductions (CFRs) in LAD coronary artery (open chest dog; 10 mg infused into a peripheral vein, 20 kg open chest dog, FIG. 36): partial ablation of the CFRs
- effect on cyclic flow reductions (CFRs) in LAD coronary artery (open chest dog; second infusion of 40 mg into a peripheral vein, open chest dog, FIG. 37): complete ablation of the CFRs

Compound: C[C@H](NC(=O)[C@@H]1CSSC[C@H](NC(=O)CN)C(=O)N[C@@H](CCCCN)C(=O)NCC(=O)N[C@@H](CC(=O)O)C(=O)N[C@@H](Cc2c[nH]c3ccccc23)C(=O)N2CCC[C@H]2C(=O)N1)C(N)=O [#4] (H-GCKGDWPCA-NH2; disulfide 2-8)
- differential inhibition of fibrinogen/GP IIb-IIIa binding as compared to vitronectin/vitronectin receptor binding (GP IIb-IIIa): highest differential

Compound: NCCCC[C@@H]1NC(=O)CNC(=O)[C@@H](N)CSSC[C@@H](C(N)=O)NC(=O)[C@@H]2CCCN2C(=O)[C@H](Cc2c[nH]c3ccccc23)NC(=O)[C@H](CC(=O)O)NC(=O)CNC1=O [#5] (H-CGKGDWPC-NH2; disulfide 1-8)
- differential inhibition of fibrinogen/GP IIb-IIIa binding as compared to vitronectin/vitronectin receptor binding (GP IIb-IIIa): quite specific
- platelet aggregation inhibition (in words) (human platelets): excellent platelet aggregation inhibition activities

Compound: C[C@H](NC(=O)[C@@H]1CSSC[C@H](NC(=O)CN)C(=O)NCC(=O)N[C@@H](CCCCN)C(=O)NCC(=O)N[C@@H](CC(=O)O)C(=O)N[C@@H](Cc2c[nH]c3ccccc23)C(=O)N1)C(N)=O [#6] (H-GCGKGDWCA-NH2; disulfide 2-8)
- IC50 (human platelets; [1]): > 200 µM

Compound: C[C@H](NC(=O)[C@@H]1CSSC[C@H](NC(=O)CN)C(=O)N[C@@H](CCCCN)C(=O)NCC(=O)N[C@@H](CC(=O)O)C(=O)N[C@@H](Cc2c[nH]c3ccccc23)C(=O)N1)C(N)=O [#7] (H-GCKGDWCA-NH2; disulfide 2-7)
- differential inhibition of fibrinogen/GP IIb-IIIa binding as compared to vitronectin/vitronectin receptor binding (GP IIb-IIIa): quite specific
- platelet aggregation inhibition (in words) (human platelets): excellent platelet aggregation inhibition activities
- IC50 (human platelets; text of Example 17, read-out: IC50 for ability to inhibit ADP-induced human platelet aggregation): 100 µM

Compound: NCCCC[C@@H]1NC(=O)[C@@H](N)CSSC[C@@H](C(N)=O)NC(=O)[C@@H]2CCCN2C(=O)[C@H](Cc2c[nH]c3ccccc23)NC(=O)[C@H](CCC(=O)O)NC(=O)CNC1=O [#35] (H-CKGEWPC-NH2; disulfide 1-7)
- IC50 (human platelets; [1]): > 300 µM

Compound: C[C@H](NC(=O)[C@@H]1CSSC[C@H](NC(=O)CN)C(=O)NCC(=O)N[C@@H](CCCCN)C(=O)NCC(=O)N[C@@H](CC(=O)O)C(=O)N[C@@H](Cc2c[nH]c3ccccc23)C(=O)N1)C(N)=O [Analog 6] (H-GCGKGDWCA-NH2; disulfide 2-8)
- differential inhibition of fibrinogen/GP IIb-IIIa binding as compared to vitronectin/vitronectin receptor binding (GP IIb-IIIa): differentially capable

Compound: CC(=O)N[C@H]1CSSC[C@@H](C(N)=O)NC(=O)[C@H](CC(=O)O)NC(=O)CNC(=O)[C@H](CCCCN)NC1=O [Analog 8] (Ac-CKGDC-NH2; disulfide 1-5)
- differential inhibition of fibrinogen/GP IIb-IIIa binding as compared to vitronectin/vitronectin receptor binding (GP IIb-IIIa): differentially capable

Compound: C[C@H](NC(=O)[C@@H]1CSSC[C@H](NC(=O)CN)C(=O)NCC(=O)N[C@@H](CCCCN)C(=O)NCC(=O)N[C@@H](CC(=O)O)C(=O)N[C@@H](Cc2c[nH]c3ccccc23)C(=O)N2CCC[C@H]2C(=O)N1)C(N)=O [Analog #3, G-C-G-K-G-D-W-P-C-A-NH2]
- inhibition of M21 melanoma cell attachment to vitronectin (in words) (M21 melanoma cells): lack of ability
- concentration up to which ineffective on M21 cell attachment to vitronectin (M21 melanoma cells; FIG. 32): > 60 µM

Compound: N=C(N)NCCC[C@H](N)C(=O)NCC(=O)N[C@@H](CC(=O)O)C(=O)N[C@@H](Cc1c[nH]c2ccccc12)C(N)=O [RGDW-NH2, reference compound] (H-RGDW-NH2)
- inhibition of binding of fibrinogen to GP IIb-IIIa (in words) (GP IIb-IIIa): very similar in activity to cyclic GCGRGDWPCA-NH2

Compound: C[C@H](NC(=O)[C@@H]1CSSC[C@H](NC(=O)CN)C(=O)NCC(=O)N[C@@H](CCCNC(=N)N)C(=O)NCC(=O)N[C@@H](CC(=O)O)C(=O)N[C@@H](Cc2c[nH]c3ccccc23)C(=O)N2CCC[C@H]2C(=O)N1)C(N)=O [reference compound] (H-GCGRGDWPCA-NH2; disulfide 2-9)
- inhibition of M21 melanoma cell attachment to vitronectin (in words) (M21 melanoma cells): potent inhibitors of cell attachment
- inhibition of M21 melanoma cell attachment to vitronectin (in words) (M21 melanoma cells; listed as cyclic RGD compound): ability

Compound: ECADGLCCDQCRFLKKGTVCRVAKGDWNDDTCTGQSC- D-C-P-R-N-G-L-Y-G (ECADGLCCDQCRFLKKGTVCRVAKGDWNDDTCTGQSCDCPRNGLYG) [Analog #1]
- platelet aggregation inhibition (in words) (human platelets): potent inhibitors of platelet aggregation
- inhibition of M21 melanoma cell attachment to vitronectin (in words) (M21 melanoma cells): neither barbourin nor Peptide 1 (truncated barbourin) had a significant effect

Compound: EEPCATGPCCRRCKFKRAGKVCRVAKGDWNNDYCTGKSCDCPRNPWNG (EEPCATGPCCRRCKFKRAGKVCRVAKGDWNNDYCTGKSCDCPRNPWNG) [Analog #2]
- inhibition of binding of fibrinogen to GP IIb-IIIa (in words) (GP IIb-IIIa): ability
- inhibition of binding of vitronectin to vitronectin receptor (in words) (vitronectin receptor): inability to inhibit

Compound: HHLGGAQKAGDV
- IC50 (platelet receptors): 10 to 100 µM
